According to patent publication US20240270762A1, “PENICILLIN-BINDING PROTEIN INHIBITORS” (priority 2021, published 2024):
In brackets after ≈: the same amount, converted by molar mass.

Key:
[1] = molecular target: T1, PBP3 from Escherichia coli (K-12) (Escherichia coli, UniProt P0AD68); test: Bocillin-FL fluorescence polarization competition binding, E. coli PBP3
T1 construct: made in house
In short: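 Purified PBPs pre-incubated with inhibitor (E. coli PBP3 1.5 μM, 30 min; P. aeruginosa PBP3 0.75 μM, A. baumannii PBP1a 1 μM and PBP3 0.2 μM, 15 min), then Bocillin-FL 0.1 μM (0.05 μM for PBP1a) added; FP read up to 60 min. EC50 = concentration halving bound Bocillin-FL.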

[2] = test system: P. aeruginosa ATCC 27853; test: microbe, parasite or virus in culture; assay type: cell-based; conditions: Pseudomonas aeruginosa, ATCC27853, read-out: Minimum inhibitory concentration, P. aeruginosa ATCC 27853
[3] = test system: A. baumannii ATCC 19606; test: microbe, parasite or virus in culture; assay type: cell-based; conditions: Acinetobacter baumannii, ATCC19606, read-out: MIC, A. baumannii ATCC 19606
[4] = test system: P. aeruginosa ATCC 35151; test: microbe, parasite or virus in culture; assay type: cell-based; conditions: Pseudomonas aeruginosa, ATCC35151, read-out: Minimum inhibitory concentration, P. aeruginosa ATCC 35151
[5] = test system: P. aeruginosa CDC-0054; test: microbe, parasite or virus in culture; assay type: cell-based; conditions: Pseudomonas aeruginosa, CDC0054, read-out: Minimum inhibitory concentration, P. aeruginosa CDC-0054
[6] = test system: P. aeruginosa CDC-0090; test: microbe, parasite or virus in culture; assay type: cell-based; conditions: Pseudomonas aeruginosa, CDC0090, read-out: Minimum inhibitory concentration, P. aeruginosa CDC-0090
[7] = test system: P. aeruginosa CDC-0095; test: microbe, parasite or virus in culture; assay type: cell-based; conditions: Pseudomonas aeruginosa, CDC0095, read-out: Minimum inhibitory concentration, P. aeruginosa CDC-0095
[8] = test system: A. baumannii CDC-0033; test: microbe, parasite or virus in culture; assay type: cell-based; conditions: Acinetobacter baumannii, CDC0033, read-out: MIC, A. baumannii CDC-0033
[9] = test system: A. baumannii CDC-0045; test: microbe, parasite or virus in culture; assay type: cell-based; conditions: Acinetobacter baumannii, CDC0045, read-out: MIC, A. baumannii CDC-0045
[10] = test system: A. baumannii CDC-0083; test: microbe, parasite or virus in culture; assay type: cell-based; conditions: Acinetobacter baumannii, CDC0083, read-out: MIC, A. baumannii CDC-0083
[11] = test system: B. thailandensis ATCC 700388; test: microbe, parasite or virus in culture; assay type: cell-based; conditions: Burkholderia thailandensis, ATCC700388, read-out: Minimum inhibitory concentration (MIC), B. thailandensis ATCC 700388
[12] = test system: B. humptydooensis ATCC BAA-2767; test: microbe, parasite or virus in culture; assay type: cell-based; conditions: Burkholderia humptydooensis, ATCCBAA2767, read-out: Minimum inhibitory concentration (MIC), B. humptydooensis ATCC BAA-2767

T1 sequence (P0AD68 1-577): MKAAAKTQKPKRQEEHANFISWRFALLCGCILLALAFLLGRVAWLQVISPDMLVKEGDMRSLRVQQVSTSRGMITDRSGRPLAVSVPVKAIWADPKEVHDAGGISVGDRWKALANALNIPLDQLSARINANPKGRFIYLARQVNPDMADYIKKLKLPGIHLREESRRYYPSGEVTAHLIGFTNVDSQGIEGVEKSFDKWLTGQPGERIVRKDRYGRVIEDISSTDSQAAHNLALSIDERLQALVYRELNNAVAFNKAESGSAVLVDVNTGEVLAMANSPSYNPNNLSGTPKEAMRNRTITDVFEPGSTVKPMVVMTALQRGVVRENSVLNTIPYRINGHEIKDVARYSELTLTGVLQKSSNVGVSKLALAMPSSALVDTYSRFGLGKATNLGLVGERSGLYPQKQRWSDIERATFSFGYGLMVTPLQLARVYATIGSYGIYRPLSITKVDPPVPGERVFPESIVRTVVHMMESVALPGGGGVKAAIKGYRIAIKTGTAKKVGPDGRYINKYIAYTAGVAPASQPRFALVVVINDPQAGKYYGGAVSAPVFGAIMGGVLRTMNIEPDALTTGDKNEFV

Row | Structure (SMILES) | EC50 [1] [µM] | MIC [2] [µg/mL] | MIC [3] [µg/mL] | MIC [4] [µg/mL] | MIC [5] [µg/mL] | MIC [6] [µg/mL] | MIC [7] [µg/mL] | MIC [8] [µg/mL] | MIC [9] [µg/mL] | MIC [10] [µg/mL] | MIC [11] [µg/mL] | MIC [12] [µg/mL]
1 | O=C(NCCCN1CCN(C(=O)NC(C(=O)N[C@H]2Cc3ccc(F)c(C(=O)O)c3OB2O)c2cc(F)c(O)c(O)c2Cl)C1=O)c1cccnc1 (stereo partly drawn) [Example 281, (3R)-3-(2-(2-chloro-5-fluoro-3,4-dihydroxyphenyl)-2-(3-(3-(nicotinamido)propyl)-2-oxoimidazolidine-1-carboxamido)acetamido)-7-fluoro-2-hydroxy-3,4-dihydro-2H-benzo[e][1,2]oxaborinine-8-carboxylic acid] | 10 to 50 | 2 to 4 (≈ 2.79 to 5.58 µM) | < 1 | < 1 | 8 to 16 (≈ 11.2 to 22.3 µM) | 2 to 4 (≈ 2.79 to 5.58 µM) | 2 to 4 (≈ 2.79 to 5.58 µM) | 2 to 4 (≈ 2.79 to 5.58 µM) | < 1 | 8 to 16 (≈ 11.2 to 22.3 µM) | 2 to 4 (≈ 2.79 to 5.58 µM) | < 1
2 | O=C(NCCCN1CCN(C(=O)N[C@H](C(=O)N[C@H]2Cc3ccc(F)c(C(=O)O)c3OB2O)c2cc(F)c(O)c(O)c2Cl)C1=O)Nc1ccc(O)cc1 [Example 283, (R)-3-((S)-2-(2-chloro-5-fluoro-3,4-dihydroxyphenyl)-2-(3-(3-(3-(4-hydroxyphenyl)ureido)propyl)-2-oxoimidazolidine-1-carboxamido)acetamido)-7-fluoro-2-hydroxy-3,4-dihydro-2H-benzo[e][1,2]oxaborinine-8-carboxylic acid] | > 250 | > 128 | > 128 | 2 to 4 (≈ 2.68 to 5.36 µM) | > 128 | > 128 | > 128 | > 128 | > 128 | > 128 | > 128 | > 128
3 | O=C(NCCCN1CCN(C(=O)N[C@@H](C(=O)N[C@H]2Cc3ccc(F)c(C(=O)O)c3OB2O)c2cc(F)c(O)c(O)c2Cl)C1=O)Nc1ccc(O)cc1 [Example 284, (R)-3-((R)-2-(2-chloro-5-fluoro-3,4-dihydroxyphenyl)-2-(3-(3-(3-(4-hydroxyphenyl)ureido)propyl)-2-oxoimidazolidine-1-carboxamido)acetamido)-7-fluoro-2-hydroxy-3,4-dihydro-2H-benzo[e][1,2]oxaborinine-8-carboxylic acid] | 10 to 50 | 2 to 4 (≈ 2.68 to 5.36 µM) | < 1 | < 1 | < 1 | < 1 | < 1 | < 1 | < 1 | 2 to 4 (≈ 2.68 to 5.36 µM) | < 1 | < 1
4 | O=C(NCCCN1CCN(C(=O)NC(C(=O)N[C@H]2Cc3ccc(F)c(C(=O)O)c3OB2O)c2cc(F)c(O)c(O)c2Cl)C1=O)Nc1ccncc1 (stereo partly drawn) [Example 285, (3R)-3-(2-(2-chloro-5-fluoro-3,4-dihydroxyphenyl)-2-(2-oxo-3-(3-(3-(pyridin-4-yl)ureido)propyl)imidazolidine-1-carboxamido)acetamido)-7-fluoro-2-hydroxy-3,4-dihydro-2H-benzo[e][1,2]oxaborinine-8-carboxylic acid] | 10 to 50 | 8 to 16 (≈ 10.9 to 21.9 µM) | < 1 | < 1 | 8 to 16 (≈ 10.9 to 21.9 µM) | 2 to 4 (≈ 2.73 to 5.47 µM) | > 128 | 8 to 16 (≈ 10.9 to 21.9 µM) | 2 to 4 (≈ 2.73 to 5.47 µM) | < 1 | 2 to 4 (≈ 2.73 to 5.47 µM) | 2 to 4 (≈ 2.73 to 5.47 µM)
5 | O=C(NCCS(=O)(=O)N1CCN(C(=O)N[C@H](C(=O)N[C@H]2Cc3ccc(F)c(C(=O)O)c3OB2O)c2cc(F)c(O)c(O)c2Cl)C1=O)c1ccc(O)cc1 [Example 286, (R)-3-((S)-2-(2-chloro-5-fluoro-3,4-dihydroxyphenyl)-2-(3-((2-(4-hydroxybenzamido)ethyl)sulfonyl)-2-oxoimidazolidine-1-carboxamido)acetamido)-7-fluoro-2-hydroxy-3,4-dihydro-2H-benzo[e][1,2]oxaborinine-8-carboxylic acid] | > 250 | > 128 | > 128 | 8 to 16 (≈ 10.2 to 20.5 µM) | > 128 | > 128 | > 128 | > 128 | > 128 | > 128 | > 128 | > 128
6 | O=C(NCCS(=O)(=O)N1CCN(C(=O)N[C@@H](C(=O)N[C@H]2Cc3ccc(F)c(C(=O)O)c3OB2O)c2cc(F)c(O)c(O)c2Cl)C1=O)c1ccc(O)cc1 [Example 287, (R)-3-((R)-2-(2-chloro-5-fluoro-3,4-dihydroxyphenyl)-2-(3-((2-(4-hydroxybenzamido)ethyl)sulfonyl)-2-oxoimidazolidine-1-carboxamido)acetamido)-7-fluoro-2-hydroxy-3,4-dihydro-2H-benzo[e][1,2]oxaborinine-8-carboxylic acid] | < 10 | 2 to 4 (≈ 2.56 to 5.12 µM) | < 1 | < 1 | 2 to 4 (≈ 2.56 to 5.12 µM) | 2 to 4 (≈ 2.56 to 5.12 µM) | 2 to 4 (≈ 2.56 to 5.12 µM) | < 1 | < 1 | < 1 | 2 to 4 (≈ 2.56 to 5.12 µM) | < 1
7 | O=C(NCCS(=O)(=O)N1CCN(C(=O)NC(C(=O)N[C@H]2Cc3ccc(F)c(C(=O)O)c3OB2O)c2cc(F)c(O)c(O)c2Cl)C1=O)c1ccncc1 (stereo partly drawn) [Example 288, (3R)-3-(2-(2-chloro-5-fluoro-3,4-dihydroxyphenyl)-2-(3-((2-(isonicotinamido)ethyl)sulfonyl)-2-oxoimidazolidine-1-carboxamido)acetamido)-7-fluoro-2-hydroxy-3,4-dihydro-2H-benzo[e][1,2]oxaborinine-8-carboxylic acid] | < 10 | 2 to 4 (≈ 2.61 to 5.22 µM) | < 1 | < 1 | 2 to 4 (≈ 2.61 to 5.22 µM) | 2 to 4 (≈ 2.61 to 5.22 µM) | 8 to 16 (≈ 10.4 to 20.9 µM) | 8 to 16 (≈ 10.4 to 20.9 µM) | < 1 | < 1 | 2 to 4 (≈ 2.61 to 5.22 µM) | 2 to 4 (≈ 2.61 to 5.22 µM)
8 | O=C(NCCS(=O)(=O)N1CCN(C(=O)NC(C(=O)N[C@H]2Cc3ccc(F)c(C(=O)O)c3OB2O)c2cc(F)c(O)c(O)c2Cl)C1=O)Nc1ccc(O)cc1 (stereo partly drawn) [Example 289, (3R)-3-(2-(2-chloro-5-fluoro-3,4-dihydroxyphenyl)-2-(3-((2-(3-(4-hydroxyphenyl)ureido)ethyl)sulfonyl)-2-oxoimidazolidine-1-carboxamido)acetamido)-7-fluoro-2-hydroxy-3,4-dihydro-2H-benzo[e][1,2]oxaborinine-8-carboxylic acid] | < 10 | 2 to 4 (≈ 2.51 to 5.02 µM) | < 1 | < 1 | 2 to 4 (≈ 2.51 to 5.02 µM) | 2 to 4 (≈ 2.51 to 5.02 µM) | 2 to 4 (≈ 2.51 to 5.02 µM) | 2 to 4 (≈ 2.51 to 5.02 µM) | 2 to 4 (≈ 2.51 to 5.02 µM) | < 1 | 8 to 16 (≈ 10 to 20.1 µM) | 2 to 4 (≈ 2.51 to 5.02 µM)
9 | O=C(NCCS(=O)(=O)N1CCN(C(=O)N[C@@H](C(=O)N[C@H]2Cc3ccc(F)c(C(=O)O)c3OB2O)c2cc(F)c(O)c(O)c2Cl)C1=O)Nc1ccncc1 [Example 290, (R)-3-((R)-2-(2-chloro-5-fluoro-3,4-dihydroxyphenyl)-2-(2-oxo-3-((2-(3-(pyridin-4-yl)ureido)ethyl)sulfonyl)imidazolidine-1-carboxamido)acetamido)-7-fluoro-2-hydroxy-3,4-dihydro-2H-benzo[e][1,2]oxaborinine-8-carboxylic acid] | < 10 | 2 to 4 (≈ 2.56 to 5.12 µM) | < 1 | < 1 | 2 to 4 (≈ 2.56 to 5.12 µM) | 2 to 4 (≈ 2.56 to 5.12 µM) | 2 to 4 (≈ 2.56 to 5.12 µM) | 2 to 4 (≈ 2.56 to 5.12 µM) | < 1 | < 1 | 2 to 4 (≈ 2.56 to 5.12 µM) | < 1
10 | O=C(NCCCS(=O)(=O)N1CCN(C(=O)NC(C(=O)N[C@H]2Cc3ccc(F)c(C(=O)O)c3OB2O)c2cc(F)c(O)c(O)c2Cl)C1=O)Nc1ccncc1 (stereo partly drawn) [Example 291, (3R)-3-(2-(2-chloro-5-fluoro-3,4-dihydroxyphenyl)-2-(2-oxo-3-((3-(3-(pyridin-4-yl)ureido)propyl)sulfonyl)imidazolidine-1-carboxamido)acetamido)-7-fluoro-2-hydroxy-3,4-dihydro-2H-benzo[e][1,2]oxaborinine-8-carboxylic acid] | < 10 | 2 to 4 (≈ 2.51 to 5.03 µM) | < 1 | < 1 | 2 to 4 (≈ 2.51 to 5.03 µM) | 2 to 4 (≈ 2.51 to 5.03 µM) | > 128 | 2 to 4 (≈ 2.51 to 5.03 µM) | 2 to 4 (≈ 2.51 to 5.03 µM) | < 1 | 2 to 4 (≈ 2.51 to 5.03 µM) | < 1
